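All cell lines were grown in 96-well plates and treated with compound for 48 hours. Here, GI50 denotes the concentration required for 50% inhibition of growth.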 Active and inactive are the calls of the source. Cut-off read from the data, not from the text of the source: active = GI50 up to about 1.1 µM and inactive = higher.
Experiments:
Assay in all cases: NCI anticancer screen, dose series, 48 h
A498 = tested on: A498
DU-145 = tested on: DU-145
HL-60 = tested on: HL-60
KM12 = tested on: KM12
M14 = tested on: M14
MDA-MB-231 = tested on: MDA-MB-231
MDA-MB-435 = tested on: MDA-MB-435
MDA-N = tested on: MDA-N
PC-3 = tested on: PC-3
T47D = tested on: T47D
TK-10 = tested on: TK-10
UACC-257 = tested on: UACC-257
DLD-1 = tested on: DLD-1
DMS-114 = tested on: DMS-114
HCT-116 = tested on: HCT-116
KM-20L2 = tested on: KM-20L2
M19-MEL = tested on: M19-MEL
SN12C = tested on: SN12C
SNB-78 = tested on: SNB-78
Hs-578T = tested on: Hs-578T

Measured: GI50

CCOC(=O)c1csc(NC(=O)CN2CCN(C)CC2)n1
inactive: A498 > 100 µM | DU-145 > 100 µM | HL-60 > 100 µM | KM12 > 100 µM | M14 > 100 µM | MDA-MB-231 > 100 µM | MDA-MB-435 > 100 µM | MDA-N > 100 µM | PC-3 > 100 µM | T47D > 100 µM | TK-10 > 100 µM | UACC-257 > 100 µM

CCOc1ccc(/N=N/c2ccc3oc(=O)c(/C(C)=N\NC(=O)CC(=O)Nc4ccc(Cl)cc4)cc3c2)cc1
inactive: DLD-1 12.6 µM | DMS-114 15.9 µM | HCT-116 16.4 µM | KM-20L2 > 100 µM | KM12 19.2 µM | M19-MEL 27.9 µM | SN12C 26.1 µM | SNB-78 27.9 µM | TK-10 12.9 µM

CC(O)=C1C(=O)CCC1=O
inactive: DU-145 > 100 µM | HCT-116 > 100 µM | HL-60 > 100 µM | Hs-578T > 100 µM | KM12 > 100 µM | M14 > 100 µM | MDA-MB-435 > 100 µM | PC-3 > 100 µM | SN12C > 100 µM | T47D > 100 µM | TK-10 > 100 µM | UACC-257 > 100 µM

CC(C)OP(=O)(OC(C)C)c1c(N)n[nH]c1Nc1ccccc1
inactive: A498 > 100 µM | DU-145 > 100 µM | Hs-578T 33 µM | KM12 > 100 µM | M14 > 100 µM | MDA-MB-231 > 100 µM | MDA-MB-435 > 100 µM | MDA-N > 100 µM | PC-3 > 100 µM | T47D > 100 µM | TK-10 > 100 µM | UACC-257 > 100 µM

CN1CCC23c4ccccc4NC1C21CCN(C)C3Nc2ccccc21
inactive: A498 > 218 µM | DLD-1 > 375 µM | DMS-114 > 375 µM | HCT-116 356 µM | HL-60 59.7 µM | KM-20L2 > 239 µM | KM12 268 µM | M19-MEL > 375 µM | SN12C > 375 µM | SNB-78 151 µM | UACC-257 93.3 µM

CC(=O)Oc1cc2c(cc1OC(C)=O)OCC(c1ccc(C)cc1)C2 (stereo unspecified)
inactive: A498 8.69 µM | DLD-1 21.8 µM | DMS-114 4.94 µM | HCT-116 20.7 µM | HL-60 2.61 µM | KM-20L2 25.1 µM | KM12 21.6 µM | M19-MEL 9.29 µM | SN12C 18.1 µM | SNB-78 21.6 µM | UACC-257 21.4 µM

COc1ccc(N2C(=O)C3c4[nH]c5ccccc5c4C4CCCCCCCCCC4C3C2=O)cc1 (stereo unspecified)
inactive: A498 > 10 µM | DU-145 > 10 µM | HCT-116 > 10 µM | HL-60 > 10 µM | Hs-578T > 10 µM | KM12 > 10 µM | M14 > 10 µM | MDA-MB-231 > 10 µM | MDA-MB-435 > 10 µM | MDA-N > 10 µM | PC-3 > 10 µM | SN12C > 10 µM | T47D > 10 µM | TK-10 > 10 µM

Source: ChEMBL document CHEMBL1201862, “PubChem BioAssay data set” (2004)
